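The compound was tested at five concentrations on cells cultured in 96-well plates, with a 48-hour exposure period. Definition used: TGI = concentration required for complete inhibition of growth.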
Key:
Assay in all cases: NCI tumour cell line growth inhibition, 48 h
XF 498 CNS = tested on: XF 498 CNS
RXF-631 renal = tested on: RXF-631 renal
P388 leukemia = tested on: P388 leukemia
P388/ADR leukemia = tested on: P388/ADR leukemia
SN12K1 renal = tested on: SN12K1 renal

Row | SMILES | TGI (XF 498 CNS) [µM] | TGI (RXF-631 renal) [µM] | TGI (P388 leukemia) [µM] | TGI (P388/ADR leukemia) [µM] | TGI (SN12K1 renal) [µM]
1 | N#CC12Cc3cc4c(cc3-c3cccc(c31)CCN2C(=O)c1ccccc1)OCO4 (centres undefined) | > 100 |  |  |  | 
2 | COc1ccc(C(=O)C2=NON3OC23C(=O)c2ccc(OC)cc2)cc1 (centres undefined) | 23.9 | 31.8 |  |  | 
3 | COc1nc2[nH]ccc2c(=O)[nH]1 |  | > 100 |  |  | 
4 | Cn1cnc([N+](=O)[O-])c1Sc1nc(N)nc2c1ncn2C1OC(CO)C(O)C1O (centres undefined) | > 100 |  |  |  | 
5 | Cn1c(=O)[nH]c2nncnc2c1=O | 245 |  | 148 | > 625 | > 625
